Data as given in patent US6737383B1, “Herbicidal oxadiazolidines” (priority 1999, dated 2004).

Legend:
[1] = tested on: pigweed; experiment: Test B pre/postemergence pigweed; assay type: in vivo, Amaranthus retroflexus
Procedure, shortened: (§1)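 Test chemicals in a non-phytotoxic solvent mixture with surfactant were sprayed preemergence onto planted seeds and postemergence onto plants 2 to 18 cm tall (1- to 4-leaf stage). After twelve to sixteen days in a greenhouse, injury was visually rated against untreated controls from 0 (no effect) to 10 (complete control).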

[2] = tested on: velvetleaf; experiment: Test B pre/postemergence velvetleaf; assay type: in vivo, Abutilon theophrasti
Procedure, shortened: as §1

[3] = tested on: bamyardgrass; experiment: Test B flood test barnyardgrass; assay type: in vivo, Echinochloa crus-galli
Procedure, shortened: (§2)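 Flood test on plants grown to the 2-leaf stage; treated plants kept in greenhouse twelve to sixteen days, then visually rated against controls on a 0 (no effect) to 10 (complete control) scale.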

[4] = tested on: bedstraw; experiment: Test B pre/postemergence bedstraw; assay type: in vivo, Galium aparine
Procedure, shortened: as §1

[5] = tested on: corn; experiment: Test B pre/postemergence corn; assay type: in vivo, Zea mays
Procedure, shortened: as §1

[6] = tested on: cocklebur; experiment: Test B pre/postemergence cocklebur; assay type: in vivo, Xanthium strumarium
Procedure, shortened: as §1

[7] = tested on: giant foxtail; experiment: Test B pre/postemergence giant foxtail; assay type: in vivo, Setaria faberii
Procedure, shortened: as §1

[8] = tested on: rice; experiment: Test B flood test rice; assay type: in vivo, Oryza sativa
Procedure, shortened: as §2

[9] = tested on: soybean; experiment: Test B pre/postemergence soybean; assay type: in vivo, Glycine max
Procedure, shortened: as §1

[10] = tested on: blackgrass; experiment: Test B pre/postemergence blackgrass; assay type: in vivo, Alopecurus myosuroides
Procedure, shortened: as §1

[11] = tested on: smallflower flatsedge; experiment: Test B flood test smallflower flatsedge; assay type: in vivo, Cyperus difformis
Procedure, shortened: as §2

[12] = tested on: surinam grass; experiment: Test B pre/postemergence surinam grass; assay type: in vivo, Brachiaria decumbens
Procedure, shortened: as §1

[13] = tested on: wild oat; experiment: Test B pre/postemergence wild oat; assay type: in vivo, Avena fatua
Procedure, shortened: as §1

[14] = tested on: crabgrass; experiment: Test B pre/postemergence crabgrass; assay type: in vivo, Digitaria sanguinalis
Procedure, shortened: as §1

[15] = tested on: wheat; experiment: Test B pre/postemergence wheat; assay type: in vivo, Triticum aestivum
Procedure, shortened: as §1

[16] = tested on: morningglory; experiment: Test B pre/postemergence morningglory; assay type: in vivo, Ipomoea hederacea
Procedure, shortened: as §1

[17] = Postemergence, Rate 125 g/ha, scale of 0 to 10 where 0 is no effect and 10 is complete control
[18] = Preemergence, Rate 62 g/ha, scale 0 to 10 (0 no effect, 10 complete control)
[19] = Preemergence, Rate 125 g/ha, 0 is no effect, 10 is complete control
[20] = Preemergence, Rate 250 g/ha, scale 0 to 10, 0 is no effect, 10 is complete control
[21] = Preemergence, Rate 500 g/ha, scale 0 to 10 (0 no effect, 10 complete control)
[22] = Rate 62 g/ha, Postemergence, scale of 0 to 10 where 0 is no effect and 10 is complete control
[23] = Rate 250 g/ha, Postemergence, scale 0 to 10, 0 is no effect, 10 is complete control
[24] = Rate 500 g/ha, Postemergence, scale 0 to 10, 0 no effect, 10 complete control
[25] = Postemergence (flood test species), Rate 125 g/ha, scale of 0 to 10 where 0 is no effect and 10 is complete control
[26] = Postemergence, Rate 62 g/ha, scale 0 to 10, 0 is no effect, 10 is complete control
[27] = Rate 250 g/ha, Postemergence (flood test), scale 0 to 10, 0 is no effect, 10 is complete control
[28] = Rate 250 g/ha, headed Pre-emergence (flood test species), scale 0 to 10 (0 no effect, 10 complete control)
[29] = Rate 500 g/ha, headed Pre-emergence (flood test species), scale 0 to 10 (0 no effect, 10 complete control)
[30] = Rate 500 g/ha, listed under Postemergence (flood test species), scale 0 to 10, 0 no effect, 10 complete control
[31] = Rate 1000 g/ha, Pre-emergence (as headed), scale 0 to 10
[32] = Rate 62 g/ha, Postemergence section, flood test species, scale of 0 to 10 where 0 is no effect and 10 is complete control
[33] = Rate 2000 g/ha, Pre-emergence (as headed), scale 0 to 10

CC(C)N(C(=O)n1oc(=O)n(-c2ccnn2C)c1=O)c1ccc(F)cc1 [Compound 124]
Redroot pigweed plant response rating [1, 17]: 0 | Redroot pigweed plant response rating [1, 18]: 0 | Redroot pigweed plant response rating (0 to 10 scale) [1, 19]: 0 | Redroot pigweed plant response rating [1, 20]: 0 | Redroot pigweed plant response rating [1, 21]: 0 | Redroot pigweed plant response rating [1, 22]: 0 | Plant response rating, Redroot pigweed [1, 23]: 0 | Redroot pigweed plant response rating [1, 24]: 0 | Velvetleaf plant response rating [2, 17]: 0 | Velvetleaf plant response rating [2, 18]: 0 | Velvetleaf plant response rating (0 to 10 scale) [2, 19]: 0 | Velvetleaf plant response rating [2, 20]: 0 | Velvetleaf plant response rating [2, 21]: 0 | Velvetleaf plant response rating [2, 22]: 0 | Plant response rating, Velvetleaf [2, 23]: 0 | Velvetleaf plant response rating [2, 24]: 0 | Barnyardgrass plant response rating [3, 25]: 0 | Barnyardgrass plant response rating [3, 26]: 0 | Plant response rating, Barnyardgrass [3, 27]: 0 | Barnyardgrass plant response rating [3, 28]: 0 | Plant response rating, Barnyardgrass [3, 29]: 0 | Barnyardgrass plant response rating [3, 30]: 0 | Barnyardgrass plant response rating [3, 31]: 0 | Barnyardgrass plant response rating ([3]; Rate 2000 g/ha, Pre-emergence (as headed), scale 0 to 10, 0 no effect, 10 complete control): 0 | Bedstraw plant response rating [4, 18]: 0 | Bedstraw plant response rating (0 to 10 scale) [4, 19]: 0 | Bedstraw plant response rating [4, 20]: 0 | Bedstraw plant response rating [4, 21]: 0 | Bedstraw plant response rating [4, 24]: 0 | Corn plant response rating [5, 17]: 0 | Corn plant response rating [5, 18]: 0 | Corn plant response rating (0 to 10 scale) [5, 19]: 0 | Corn plant response rating [5, 20]: 0 | Corn plant response rating [5, 21]: 0 | Corn plant response rating [5, 22]: 0 | Plant response rating, Corn [5, 23]: 0 | Corn plant response rating [5, 24]: 0 | Cocklebur plant response rating [6, 17]: 0 | Cocklebur plant response rating [6, 18]: 0 | Cocklebur plant response rating [6, 20]: 0 | Cocklebur plant response rating [6, 21]: 0 | Cocklebur plant response rating [6, 22]: 0 | Plant response rating, Cocklebur [6, 23]: 0 | Cocklebur plant response rating [6, 24]: 0 | Giant foxtail plant response rating [7, 17]: 0 | Giant foxtail plant response rating [7, 18]: 0 | Giant foxtail plant response rating (0 to 10 scale) [7, 19]: 0 | Giant foxtail plant response rating [7, 20]: 0 | Giant foxtail plant response rating [7, 21]: 0 | Giant foxtail plant response rating [7, 22]: 0 | Plant response rating, Giant foxtail [7, 23]: 0 | Giant foxtail plant response rating [7, 24]: 0 | Rice plant response rating [8, 25]: 0 | Rice plant response rating [8, 32]: 0 | Plant response rating, Rice [8, 27]: 0 | Rice plant response rating [8, 28]: 0 | Plant response rating, Rice [8, 29]: 0 | Rice plant response rating [8, 30]: 0 | Rice plant response rating [8, 31]: 0 | Rice plant response rating [8, 33]: 0 | Soybean plant response rating [9, 17]: 3 | Soybean plant response rating [9, 18]: 0 | Soybean plant response rating (0 to 10 scale) [9, 19]: 0 | Soybean plant response rating [9, 20]: 0 | Soybean plant response rating [9, 21]: 0 | Soybean plant response rating [9, 22]: 0 | Plant response rating, Soybean [9, 23]: 4 | Soybean plant response rating [9, 24]: 5 | Blackgrass plant response rating [10, 17]: 0 | Blackgrass plant response rating [10, 18]: 0 | Blackgrass plant response rating (0 to 10 scale) [10, 19]: 0 | Blackgrass plant response rating [10, 20]: 0 | Blackgrass plant response rating [10, 21]: 0 | Blackgrass plant response rating [10, 22]: 0 | Plant response rating, Blackgrass [10, 23]: 0 | Blackgrass plant response rating [10, 24]: 0 | S. Flatsedge plant response rating [11, 25]: 0 | S. Flatsedge plant response rating ([11]; Pre-emergence, Rate 1000 g/ha, scale 0 to 10 (0 no effect, 10 complete control)): 0 | S. Flatsedge plant response rating [11, 32]: 0 | Plant response rating, S. Flatsedge [11, 27]: 0 | S. Flatsedge plant response rating [11, 28]: 0 | Plant response rating, S. Flatsedge [11, 29]: 0 | S. Flatsedge plant response rating [11, 30]: 0 | S. Flatsedge plant response rating [11, 33]: 0 | B. signalgrass plant response rating [12, 26]: 0 | B. signalgrass plant response rating [12, 17]: 0 | B. signalgrass plant response rating [12, 18]: 0 | B. signalgrass plant response rating (0 to 10 scale) [12, 19]: 0 | B. signalgrass plant response rating [12, 20]: 0 | B. signalgrass plant response rating [12, 21]: 0 | Plant response rating, B. signalgrass [12, 23]: 0 | B. signalgrass plant response rating ([12]; Rate 500 g/ha, Postemergence, scale of 0 to 10 where 0 is no effect and 10 is complete control): 0 | Wild oats plant response rating [13, 17]: 0 | Wild oats plant response rating [13, 18]: 0 | Wild oats plant response rating (0 to 10 scale) [13, 19]: 0 | Wild oats plant response rating [13, 20]: 0 | Wild oats plant response rating [13, 21]: 0 | Wild oats plant response rating [13, 22]: 0 | Plant response rating, Wild oats [13, 23]: 0 | Wild oats plant response rating [13, 24]: 0 | Crabgrass plant response rating [14, 17]: 0 | Crabgrass plant response rating [14, 18]: 0 | Crabgrass plant response rating (0 to 10 scale) [14, 19]: 0 | Crabgrass plant response rating [14, 20]: 0 | Crabgrass plant response rating [14, 21]: 0 | Crabgrass plant response rating [14, 22]: 0 | Plant response rating, Crabgrass [14, 23]: 0 | Crabgrass plant response rating [14, 24]: 0 | Wheat plant response rating [15, 17]: 0 | Wheat plant response rating [15, 18]: 0 | Wheat plant response rating (0 to 10 scale) [15, 19]: 0 | Wheat plant response rating [15, 20]: 0 | Wheat plant response rating [15, 21]: 0 | Wheat plant response rating [15, 22]: 0 | Plant response rating, Wheat [15, 23]: 0 | Wheat plant response rating [15, 24]: 0 | Morningglory plant response rating [16, 17]: 0 | Morningglory plant response rating [16, 18]: 0 | Morningglory plant response rating (0 to 10 scale) [16, 19]: 0 | Morningglory plant response rating [16, 20]: 0 | Morningglory plant response rating [16, 21]: 0 | Morningglory plant response rating [16, 22]: 0 | Plant response rating, Morningglory [16, 23]: 0 | Morningglory plant response rating [16, 24]: 2
